Assay results from patent US8729271B2, “Glycine transporter inhibiting substances” (Taisho Pharmaceutical Co., Ltd, priority 2010, dated 2014).
Where “and” joins values, the source holds several entries; their conditions need not be identical. Equal values may be shown once.

Each compound was assayed against T1, human type 1 glycine transporter (GlyT1) (Homo sapiens, UniProt P48067) (assay: Glycine uptake inhibition experiment ([3H]glycine uptake in T98G cells)). Conditions: T98G glioma cells; [3H]glycine 250 nM; 10-min pretreatment; 15 min at room temperature; read-out: glycine uptake inhibiting activity (IC50).
T1 construct: Used in the experiment were T98G cells (glioma cells) developing a human type 1 glycine transporter of (GlyT1); endogenous in cells; host or cells: T98G human glioma cells
T1 sequence (P48067 1-706): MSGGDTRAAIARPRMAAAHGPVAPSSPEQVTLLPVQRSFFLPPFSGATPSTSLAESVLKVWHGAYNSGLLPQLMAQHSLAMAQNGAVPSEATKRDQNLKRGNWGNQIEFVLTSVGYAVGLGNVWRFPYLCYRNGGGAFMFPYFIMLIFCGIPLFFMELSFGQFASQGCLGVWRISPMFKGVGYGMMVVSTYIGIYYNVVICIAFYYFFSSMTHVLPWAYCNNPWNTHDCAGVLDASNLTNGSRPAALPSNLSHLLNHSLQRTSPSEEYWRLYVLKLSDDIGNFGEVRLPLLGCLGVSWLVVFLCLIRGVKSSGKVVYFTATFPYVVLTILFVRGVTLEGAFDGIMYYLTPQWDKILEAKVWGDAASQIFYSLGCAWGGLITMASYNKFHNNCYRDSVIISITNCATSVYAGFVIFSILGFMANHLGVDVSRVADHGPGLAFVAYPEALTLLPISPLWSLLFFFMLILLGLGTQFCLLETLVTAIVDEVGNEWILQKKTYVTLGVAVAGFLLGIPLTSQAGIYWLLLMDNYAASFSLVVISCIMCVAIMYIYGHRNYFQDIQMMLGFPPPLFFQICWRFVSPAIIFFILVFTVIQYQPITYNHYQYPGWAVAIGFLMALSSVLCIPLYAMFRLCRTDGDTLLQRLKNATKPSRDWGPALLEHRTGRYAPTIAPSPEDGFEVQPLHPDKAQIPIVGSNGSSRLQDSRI
Format: cell-based
Description: A glycine uptake inhibition experiment was conducted in accordance with the method described in Neuron, 8, 927-935, 1992. Used in the experiment were T98G cells (glioma cells) developing a human type 1 glycine transporter of (GlyT1). The T98G cells were seeded in a 96-well plate at a density of 2.0×10^4 cells per well and cultured overnight in a CO2 incubator. The test substance was first dissolved in a 100% DMSO solution and then dissolved in a 10 mM HEPES buffer solution (pH 7.4) supplemented with 150 mM sodium chloride, 1 mM calcium chloride, 5 mM potassium chloride, 1 mM magnesium chloride, 10 mM glucose, and 0.2% bovine serum albumin. After removing the cell culture medium, the test substance was subjected to a 10-min pretreatment. Thereafter, the test substance and [^3H] glycine (final concentration: 250 nM) were added to the cells and reaction was performed at room temperature for 15 minutes. After the end of the reaction, the extracellular fluid was aspirated with a manifold to remove the excess marker glycine present outside of the cells; thereafter, the cells were lysed with an aqueous solution of 0.5 M sodium hydroxide. The glycine content in the cells was determined by measuring the radioactivity in the cell lysate with a liquid scintillation counter. With the amount of glycine uptake in the presence of 10 μM ALX5407 being referred to as the nonspecific uptake, the amount of specific uptake was calculated by subtracting the amount of nonspecific uptake from the total amount of uptake in the absence of 10 μM ALX5407. In addition, glycine uptake inhibiting activity (IC50) was calculated from an inhibition curve for the concentration of the test substance ranging from 10^−9 to 10^−5 M.
It should be noted that ALX5407 is a HCl salt of N-[(3R)-3-([1,1′-biphenyl]-4-yloxy)-3-(4-fluorophenyl)propyl]-N-methylglycine.
Incidentally, Compound 56 which is recited as 2HCl salt in the above Table 1-6 was subjected to measurement as its free form in the Glycine Uptake Inhibition Experiment.

SMILES	IC50
CCCN(Cc1cc(-c2ccccc2)ccn1)C(=O)c1cn(C)cn1 [Compound 5]	≥ 1000 nM and 1400 nM
Cc1n[nH]c(C)c1-c1cc(CN(C(=O)c2cn(C)cn2)C(C)C)ccc1F [Compound 25]	≥ 1000 nM
CC(C)N(Cc1ccc(F)c(-c2ncc[nH]2)c1)C(=O)c1cn(C)cn1 [Compound 29]	≥ 1000 nM
Cc1cccc(C)c1-c1cc(CN(C(=O)c2cn(C)cn2)C(C)C)ccn1 [Compound 63]	≥ 1000 nM
Cn1cnc(C(=O)N(Cc2ccnc(-c3ccc(OC(F)(F)F)cc3)c2)C2CCC2)c1 [Compound 107]	3.5 nM
Cn1cnc(C(=O)N(Cc2ccc(F)c(-c3ccc(F)nc3)c2)C2CCC2)c1 [Compound 120]	8 nM
Cc1cnn(-c2cc(CN(C(=O)c3cn(C)cn3)C(C)C)ccc2F)c1 [Compound 121]	160 nM
CC(C)N(Cc1ccnc(-c2cc(F)ccc2C(F)(F)F)c1)C(=O)c1cn(C)cn1 [Compound 137]	≥ 1000 nM
CC(C)N(Cc1ccc(F)c(-c2ccc(F)nc2)c1)C(=O)c1c[nH]cn1 [Compound 141]	≥ 1000 nM
CC(C)N(Cc1ccnc(-c2ccc(OC(F)(F)F)cc2)c1)C(=O)c1c[nH]cn1 [Compound 146]	≥ 1000 nM
CC(c1ccnc(-c2ccc(F)cc2)c1)N(C(=O)c1cn(C)cn1)C1CCC1 (stereo not drawn) [Compound 153]	30 nM
Cn1cnc(C(=O)N(Cc2csc(-c3ccc(OC(F)(F)F)cc3)n2)C2CCC2)c1 [Compound 155]	5.8 nM

The next lines start with the values.

IC50	SMILES
18 nM	CC(C)N(Cc1ccc(F)c(-c2ccccn2)c1)C(=O)c1cn(C)cn1 [Compound 14]
≥ 1000 nM	CC(C)N(Cc1ccc(F)c(-c2cccc3ncccc23)c1)C(=O)c1cn(C)cn1 [Compound 24]
7.3 nM	CC(C)N(Cc1ccnc(-c2ccc(OC(F)(F)F)cc2)c1)C(=O)c1cn(C)cn1 [Compound 30]
≥ 1000 nM	CC(C)N(Cc1ccnc(-c2ccc(F)cc2)c1)C(=O)c1c[nH]cn1 [Compound 42]
≥ 1000 nM	Cn1cnc(C(=O)N(CCC(F)(F)F)Cc2ccnc(-c3ccc(F)cc3)c2)c1 [Compound 52]
15 nM	CC(C)N(Cc1ccc(F)c(-n2ccnc2)c1)C(=O)c1cn(C)cn1 [Compound 74]
≥ 1000 nM	CC(C)N(Cc1ccnc(-c2ccccc2OC(F)(F)F)c1)C(=O)c1cn(C)cn1 [Compound 111]
≥ 1000 nM	Cc1cn(-c2cc(CN(C(=O)c3cn(C)cn3)C(C)C)ccc2F)c(C)n1 [Compound 132]
≥ 1000 nM	CC(C)N(Cc1noc(-c2ccc(Cl)cc2)n1)C(=O)c1cn(C)cn1 [Compound 138]
64 nM	Cc1cn(-c2cc(CN(C(=O)c3cn(C)cn3)C(C)C)ccc2F)cn1 [Compound 143]
330 nM	Cn1cnc(C(=O)N(Cc2nc(-c3ccc(OC(F)(F)F)cc3)no2)C2CCC2)c1 [Compound 160]
12 nM	Cn1cnc(C(=O)N(Cc2ccc(F)c(-c3ccc(N4CCCC4)nc3)c2)C2CCC2)c1 [Compound 161]
≥ 1000 nM	Cn1cnc(C(=O)N(Cc2ccc(F)c(-c3cccnc3C(F)(F)F)c2)C2CCOCC2)c1 [Compound 168]
16 nM	Cn1cnc(C(=O)N(Cc2ccnc(-c3cc(F)c(F)cc3F)c2)C2CCC2)c1 [Compound 191]
14 nM	Cn1cnc(C(=O)N(Cc2ccc(F)c(-c3cc(C(F)(F)F)ncn3)c2)C2CCC2)c1 [Compound 208]
3.7 nM	Cn1cnc(C(=O)N(Cc2ccnc(-c3ccc(F)c(OC(F)F)c3)c2)C2CCC2)c1 [Compound 213]

What follows are compounds tested against T2, P-glycoprotein (P-gp), Human MDR1 (Homo sapiens, UniProt P08183) (assay: Test for recognizability of P-gp substrate (LLC-GAS-COL 300 cells, Transwell)). Conditions: 10 μM; LLC-GAS-COL 300 cells (Human MDR1 in LLC-PK1); criteria of Nature Reviews Drug Discovery (2010) 9, 215-236.
T2 construct: expressed in transfected cells; host or cells: LLC-GAS-COL 300 cells (derived from pig kidney LLC-PK1)
Format: in vitro ADME
Description: In order that drugs acting on the central nervous system will develop their efficacy, their passage from the blood to the brain is generally important. While various efflux transporters are present at the blood-brain barrier to control this passage of drugs, P-glylcoprotein (P-gp) is a typical example and inhibits the passage to the brain of any drugs that serve as the substrate for P-gp. Therefore, in the development of pharmaceuticals, nonrecognizability of a candidate drug as the substrate for P-gp is the key to its passage to the brain.
A test for recognizability of P-gp substrate was performed in accordance with a modified version of the methods described in J Pharmacol. Exp. Ther. (1992) Vol. 263, No. 2, 840-845 and J Biol. Chem. (1992) Vol. 267, No. 34, 24248-24252. To be more specific, LLC-GAS-COL 300 cells (Human MDR1 expressing system derived from pig kidney derived, cultured renal epithelial cell line LLC-PK1) were cultured for 4 days on a Transwell and replaced by a Hank's balanced salt solution (HBSS) in each well just before the test. A solution of an assay compound (a DMSO solution of the compound as diluted with HBSS and adjusted to a final concentration of 10 μM) was added to the donor side of the LLC-GAS-COL 300 cells and a prescribed amount of HBSS was collected from the acceptor side at given time intervals and the concentration of the assay compound in the collected sample was measured by LC-MS/MS.
From the cumulative amount of the compound's permeation into the acceptor, the membrane permeability coefficient (×10^−6 cm/sec) was calculated for each of apical→basal mode and basal→apical mode and the recognizability of P-gp substrate was assessed in terms of the ratio between the two modes (efflux ratio).

T2 sequence (P08183 whole entry): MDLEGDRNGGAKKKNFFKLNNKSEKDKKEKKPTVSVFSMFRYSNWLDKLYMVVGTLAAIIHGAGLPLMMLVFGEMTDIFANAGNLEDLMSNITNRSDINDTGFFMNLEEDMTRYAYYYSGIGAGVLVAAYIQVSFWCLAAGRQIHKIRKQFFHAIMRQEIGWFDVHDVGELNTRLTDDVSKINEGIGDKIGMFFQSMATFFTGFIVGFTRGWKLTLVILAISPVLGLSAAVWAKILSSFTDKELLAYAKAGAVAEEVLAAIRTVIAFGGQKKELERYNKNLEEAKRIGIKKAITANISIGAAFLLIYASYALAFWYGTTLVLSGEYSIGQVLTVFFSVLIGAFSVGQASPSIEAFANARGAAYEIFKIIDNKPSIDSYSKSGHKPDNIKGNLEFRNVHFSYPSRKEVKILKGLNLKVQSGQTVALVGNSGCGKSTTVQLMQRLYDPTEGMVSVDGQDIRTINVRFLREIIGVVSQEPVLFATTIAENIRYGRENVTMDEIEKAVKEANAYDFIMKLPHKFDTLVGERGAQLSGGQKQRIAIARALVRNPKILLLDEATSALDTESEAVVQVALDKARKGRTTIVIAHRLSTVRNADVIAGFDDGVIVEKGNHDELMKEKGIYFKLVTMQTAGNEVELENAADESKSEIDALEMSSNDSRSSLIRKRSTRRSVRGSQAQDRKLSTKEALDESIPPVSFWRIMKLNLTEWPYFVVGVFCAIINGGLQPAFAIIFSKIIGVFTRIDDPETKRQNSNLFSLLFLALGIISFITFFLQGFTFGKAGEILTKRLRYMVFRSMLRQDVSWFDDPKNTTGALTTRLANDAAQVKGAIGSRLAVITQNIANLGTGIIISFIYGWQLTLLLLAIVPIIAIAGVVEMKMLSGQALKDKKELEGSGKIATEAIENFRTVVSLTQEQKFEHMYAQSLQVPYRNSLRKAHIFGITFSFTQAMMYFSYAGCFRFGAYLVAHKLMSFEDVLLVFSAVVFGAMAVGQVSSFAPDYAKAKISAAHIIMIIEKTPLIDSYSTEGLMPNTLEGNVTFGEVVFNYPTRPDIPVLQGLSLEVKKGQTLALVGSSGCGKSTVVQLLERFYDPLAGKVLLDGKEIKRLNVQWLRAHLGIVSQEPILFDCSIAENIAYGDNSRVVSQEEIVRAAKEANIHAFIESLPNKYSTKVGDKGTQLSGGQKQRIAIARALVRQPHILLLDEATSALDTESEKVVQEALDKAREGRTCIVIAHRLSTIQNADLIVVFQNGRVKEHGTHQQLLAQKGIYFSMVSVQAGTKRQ

SMILES	recognizability as P-gp substrate (from efflux ratio basal→apical / apical→basal)
CC(C)N(Cc1ccc(F)c(-c2ccc(F)nc2)c1)C(=O)c1cn(C)cn1 [Compound 9]	not recognizable as the substrate for P-gp
CC(C)N(Cc1ccc(F)c(-c2ccccn2)c1)C(=O)c1cn(C)cn1 [Compound 14]	not recognizable as the substrate for P-gp
CC(C)N(Cc1ccc(F)c(-c2cncc(F)c2)c1)C(=O)c1cn(C)cn1 [Compound 15]	not recognizable as the substrate for P-gp
CC(C)N(Cc1ccnc(-c2ccc(OC(F)(F)F)cc2)c1)C(=O)c1cn(C)cn1 [Compound 30]	not recognizable as the substrate for P-gp
CC(C)N(Cc1ccnc(-c2ccc(F)cc2)c1)C(=O)c1cn(C)cn1 [Compound 31]	not recognizable as the substrate for P-gp
CC(C)N(Cc1ccnc(-c2ccccc2)c1)C(=O)c1cn(C)cn1 [Compound 36]	not recognizable as the substrate for P-gp
CC(C)CN(Cc1ccnc(-c2ccc(F)cc2)c1)C(=O)c1cn(C)cn1 [Compound 54]	not recognizable as the substrate for P-gp
CCn1cnc(C(=O)N(Cc2ccnc(-c3ccc(F)cc3)c2)C(C)C)c1 [Compound 56]	not recognizable as the substrate for P-gp
CC(C)N(Cc1ccnc(-c2cc(F)cc(F)c2)c1)C(=O)c1cn(C)cn1 [Compound 62]	not recognizable as the substrate for P-gp
CC(C)N(Cc1ccnc(-c2ccc(Cl)cc2)c1)C(=O)c1cn(C)cn1 [Compound 69]	not recognizable as the substrate for P-gp
CC(C)N(Cc1ccc(F)c(-n2cccn2)c1)C(=O)c1cn(C)cn1 [Compound 73]	not recognizable as the substrate for P-gp
CC(C)N(Cc1ccnc(-c2ccc(OC(F)F)cc2)c1)C(=O)c1cn(C)cn1 [Compound 124]	not recognizable as the substrate for P-gp
CN(C)c1ccc(-c2cc(CN(C(=O)c3cn(C)cn3)C3CCC3)ccc2F)cn1 [Compound 158]	not recognizable as the substrate for P-gp
COCCN(Cc1ccnc(-c2cccc(OC(F)(F)F)c2)c1)C(=O)c1cn(C)cn1 [Compound 198]	not recognizable as the substrate for P-gp
